Source: ChEMBL document CHEMBL5728630, “Aryl, heteroaryl, and heterocyclic pharmaceutical compounds for treatment of medical disorders” (2021)

What follows are compounds tested against Complement factor D (Homo sapiens, UniProt P00746) (assay: Factor D Assay: Human Factor D (purified from human serum, Complement Technology, Inc.) at 80 nM final concentration is incubated with test compound at various concentrations for 5 min at room temperature in 50 mM Tris, 1M NaCl, pH 7.5. A synthetic substrate Z-L-Lys-SBz and DTNB (Ellman's reagent) are added to final concentrations of 100 μM each. Absorbance at 405 nm (A405) is recorded at 30 second intervals for 30 min using a microplate spectrophotometer. IC50 values are calculated by nonlinear regression of complement Factor D reaction rates as a function of test compound concentration.).
Complement factor D, sequence (P00746 whole entry): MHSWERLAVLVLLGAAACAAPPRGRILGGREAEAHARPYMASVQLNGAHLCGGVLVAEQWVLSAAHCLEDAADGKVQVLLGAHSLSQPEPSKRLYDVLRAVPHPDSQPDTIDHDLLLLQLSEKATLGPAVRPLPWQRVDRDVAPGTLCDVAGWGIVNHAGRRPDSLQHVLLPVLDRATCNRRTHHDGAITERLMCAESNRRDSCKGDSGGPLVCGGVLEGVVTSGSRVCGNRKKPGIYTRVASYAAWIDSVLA

`CC(=O)c1nn(CC(=O)N2[C@H](C(=O)Nc3nc(Br)ccc3C)C[C@@]3(CNCC(F)(F)F)C[C@@H]23)c2c(C)cc(-c3cnc(C)nc3)cc12` was tested. Which IC50 did it give?
Its IC50 is < 1000 nM.

For `CC(=O)c1nn(CC(=O)N2[C@H](C(=O)N[C@@H](C)C(F)=C(C)C)C[C@@]3(C)C[C@@H]23)c2cnc(-c3cnc(C)nc3)cc12`, which IC50 is on record?
The IC50 was < 1000 nM.

With `CC(=O)c1nn(CC(=O)N2[C@H](C(=O)Nc3nc(Br)ccc3C3COC(C)(C)O3)C[C@@]3(C)C[C@@H]23)c2cnc(-c3cnc(C)nc3)cc12` (stereo not given in full) as the compound, how does the IC50 read?
Its IC50 is < 1000 nM.

Which IC50 does the source give for `CC(=O)c1nn(CC(=O)N2[C@H](C(=O)Nc3nc(Br)ccc3C)C[C@@]3(C)C[C@@H]23)c2c(C3CC3)nc(-c3cnc(C)nc3)cc12` here?
Its IC50 is < 1000 nM.

With `COc1ccc(CNC(=O)[C@@H]2C[C@@]3(C)C[C@H]3N2C(=O)Cn2nc(C(C)=O)c3cc(-c4cnc(C)nc4)cc(C)c32)cc1` as the compound, how does the IC50 read?
The IC50 was < 1000 nM.

With `CC(=O)c1nn(CC(=O)N2[C@H](C(=O)NCc3cccnc3)C[C@@]3(C)C[C@@H]23)c2c(C)cc(-c3cnc(C)nc3)cc12` as the compound, how does the IC50 read?
Its IC50 is < 1000 nM.

With `Cc1ncc(-c2cc3c(C(C)O)nn(CC(=O)N4[C@H](C(=O)Nc5nc(Br)c(F)cc5C)C[C@@]5(C)C[C@@H]45)c3c(C)n2)cn1` (stereo not given in full) as the compound, how does the IC50 read?
The IC50 was < 1000 nM.

How did the IC50 turn out when `CC(=O)c1nn(CC(=O)N2[C@@H](C(=O)Nc3nc(Br)ccc3C)C[C@@]3(CC(C)C)C[C@@H]23)c2cnc(-c3cnc(C)nc3)cc12` was run?
Its IC50 is > 10000 nM.

With `CC(=O)c1nn(CC(=O)N2[C@H](C(=O)Nc3nc(Br)ccc3CCCF)C[C@@]3(C)C[C@@H]23)c2cnc(-c3cnc(C)nc3)cc12` as the compound, how does the IC50 read?
Its IC50 is < 1000 nM.

`CC(=O)c1nn(CC(=O)N2[C@H](C(=O)Nc3cccc(Br)n3)C[C@@]3(C)C[C@@H]23)c2ccc(-c3cnc(O)nc3)cc12` was tested. Which IC50 did it give?
Its IC50 is < 1000 nM.

With `CC(=O)c1nn(CC(=O)N2[C@H](C(=O)NCCCN)C[C@@]3(C)C[C@@H]23)c2ccc(-c3cnc(C)nc3)cc12` as the compound, how does the IC50 read?
The IC50 was > 10000 nM.

Which IC50 does the source give for `CC(=O)c1nn(CC(=O)N2C[C@H](F)C[C@H]2C(=O)Nc2nc(Br)ccc2C)c2ccc(-c3cnc(OC4CS(=O)(=O)C4)nc3)cc12` here?
The IC50 was < 1000 nM.

For `CC(=O)c1nn(CC(=O)N2[C@H](C(=O)NCc3ccccc3)C[C@@]3(C)C[C@@H]23)c2c(C)cc(-c3cnc(C)nc3)cc12`, which IC50 is on record?
The IC50 was < 1000 nM.

With `CC(=O)c1nn(CC(=O)N2[C@H](C(=O)N[C@H](C)[C@H]3CC3(Cl)Cl)C[C@@]3(C)C[C@@H]23)c2c(C)cc(-c3cnc(C)nc3)cc12` as the compound, how does the IC50 read?
Its IC50 is < 1000 nM.

For `COc1cccc(CNC(=O)[C@@H]2C[C@@]3(C)C[C@H]3N2C(=O)Cn2nc(C(C)=O)c3cc(-c4cnc(C)nc4)cc(C)c32)c1`, which IC50 is on record?
The IC50 was < 1000 nM.

How did the IC50 turn out when `CC(=O)c1nn(CC(=O)N2[C@H](C(=O)Nc3nc(Br)ccc3C)C[C@@]3(CN4CC(O)C4)C[C@@H]23)c2c(C)cc(-c3cnc(C)nc3)cc12` was run?
Its IC50 is < 1000 nM.

Which IC50 does the source give for `CC(=O)c1nn(CC(=O)N2[C@H](C(=O)Nc3nc(Br)ccc3C)C[C@@]3(C)C[C@@H]23)c2c(C(F)(F)F)nc(-c3cnc(C)nc3)cc12` here?
Its IC50 is < 1000 nM.

Which IC50 does the source give for `CC(=O)c1nn(CC(=O)N2[C@H](C(=O)NCCc3ccccc3)C[C@@]3(C)C[C@@H]23)c2c(C)cc(-c3cnc(C)nc3)cc12` here?
Its IC50 is < 1000 nM.

Which IC50 does the source give for `CC(=O)c1nn(CC(=O)N2[C@H](C(=O)Nc3nc(Br)ccc3C)C[C@@]3(C)C[C@@H]23)c2c(C)cc(-c3cnc(O)nc3)cc12` here?
The IC50 was < 1000 nM.

`Cc1ncc(-c2cc(C)c3c(c2)c(C2COC2)nn3CC(=O)N2[C@H](C(=O)Nc3nc(Br)ccc3C)C[C@@]3(C)C[C@@H]23)cn1` was tested. Which IC50 did it give?
Its IC50 is < 1000 nM.

With `CC(=O)c1nn(CC(=O)N2[C@H](C(=O)NCc3cccc(C)c3)C[C@@]3(C)C[C@@H]23)c2c(C)cc(-c3cnc(C)nc3)cc12` as the compound, how does the IC50 read?
The IC50 was < 1000 nM.

`C#CC(C)NC(=O)c1nn(CC(=O)N2[C@H](C(=O)Nc3nc(Br)ccc3C)C[C@@]3(C)C[C@@H]23)c2ccc(-c3cnc(C)nc3)cc12` (stereo not given in full) was tested. Which IC50 did it give?
Its IC50 is < 1000 nM.

Which IC50 does the source give for `CC(=O)c1nn(CC(=O)N2[C@H](C(=O)NCc3cccc(F)c3)C[C@@]3(C)C[C@@H]23)c2c(C)cc(-c3cnc(C)nc3)cc12` here?
Its IC50 is < 1000 nM.

Which IC50 does the source give for `CC(=O)c1nn(CC(=O)N2[C@H](C(=O)Nc3cccc(Br)n3)C[C@@]3(C)C[C@@H]23)c2c(C)cc(-c3cnc(C)nc3)cc12` here?
The IC50 was < 1000 nM.

For `COC(=O)Cc1ccc(Br)nc1NC(=O)[C@@H]1C[C@@H](F)CN1C(=O)Cn1nc(C(C)=O)c2cc(-c3cnc(C)nc3)ccc21`, which IC50 is on record?
The IC50 was < 1000 nM.

With `C#CCNC(=O)c1nn(CC(=O)N2[C@H](C(=O)Nc3nc(Br)ccc3C)C[C@@]3(C)C[C@@H]23)c2ccc(-c3cnc(C)nc3)cc12` as the compound, how does the IC50 read?
The IC50 was < 1000 nM.

With `CC(=O)c1nn(CC(=O)N2[C@H](C(=O)Nc3cncc(Br)n3)C[C@@]3(C)C[C@@H]23)c2c(C)nc(-c3cnc(C)nc3)cc12` as the compound, how does the IC50 read?
Its IC50 is < 1000 nM.

For `CC(=O)c1nn(CC(=O)N2[C@H](C(=O)Nc3nc(Br)ccc3C)C[C@@]3(CC(O)CO)C[C@@H]23)c2cnc(-c3cnc(C)nc3)cc12` (stereo not given in full), which IC50 is on record?
The IC50 was < 1000 nM.

With `CC(=O)c1nn(CC(=O)N2[C@H]3C[C@@]3(C)C[C@H]2C(=O)Nc2nc(Br)ccc2C)c2ccc(-c3cnc(C)nc3)cc12` as the compound, how does the IC50 read?
Its IC50 is < 1000 nM.

With `CC(=O)c1nn(CC(=O)N2[C@H](C(=O)Nc3nc(Br)ccc3C)C[C@@]3(CNCc4ccccc4)C[C@@H]23)c2c(C)cc(-c3cnc(C)nc3)cc12` as the compound, how does the IC50 read?
Its IC50 is < 1000 nM.
